Experimental findings from patent publication US20030166932A1 (priority 2002, published 2003) are described below.

Some results are limits rather than exact numbers.

The target of experiment [1] is T1, RXRγ (UniProt P28705).
T1 sequence (P28705 1-463): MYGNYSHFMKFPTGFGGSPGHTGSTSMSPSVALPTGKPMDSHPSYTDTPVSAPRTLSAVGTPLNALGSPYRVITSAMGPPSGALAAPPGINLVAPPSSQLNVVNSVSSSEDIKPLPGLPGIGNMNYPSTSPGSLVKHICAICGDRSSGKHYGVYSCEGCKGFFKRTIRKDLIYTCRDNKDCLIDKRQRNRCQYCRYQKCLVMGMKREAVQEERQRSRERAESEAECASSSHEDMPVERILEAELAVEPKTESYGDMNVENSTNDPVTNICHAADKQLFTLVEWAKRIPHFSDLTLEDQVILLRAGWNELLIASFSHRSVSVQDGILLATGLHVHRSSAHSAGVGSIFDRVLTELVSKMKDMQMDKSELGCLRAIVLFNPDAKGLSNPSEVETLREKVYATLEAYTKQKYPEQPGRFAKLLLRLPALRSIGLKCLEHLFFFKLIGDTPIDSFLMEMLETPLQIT
Nature of the experiment: holoreceptor transactivation assay. Type of experiment: cell-based. To be noted: for EC50: NA = Not Active, read-out: RXR Trans. EC50 (nM) Y; for % efficacy, RXR Trans. Y: relative to 10^−6 M AGN 194204.
Excerpt: (§1) The results obtained in this assay are expressed in EC50 numbers, as they are also in the chimeric receptor transactivation assay. The results of ligand binding assay are expressed in Kd numbers.
(§2) Particularly, the transactivation data pertaining to RAR receptors were obtained in the chimeric assay, and the data pertaining to transactivation of RXR receptors were obtained in the holoreceptor transactivation assay.

The target in a further experiment is T2, RARβ (Homo sapiens, UniProt P10826).
T2 sequence (P10826 1-455): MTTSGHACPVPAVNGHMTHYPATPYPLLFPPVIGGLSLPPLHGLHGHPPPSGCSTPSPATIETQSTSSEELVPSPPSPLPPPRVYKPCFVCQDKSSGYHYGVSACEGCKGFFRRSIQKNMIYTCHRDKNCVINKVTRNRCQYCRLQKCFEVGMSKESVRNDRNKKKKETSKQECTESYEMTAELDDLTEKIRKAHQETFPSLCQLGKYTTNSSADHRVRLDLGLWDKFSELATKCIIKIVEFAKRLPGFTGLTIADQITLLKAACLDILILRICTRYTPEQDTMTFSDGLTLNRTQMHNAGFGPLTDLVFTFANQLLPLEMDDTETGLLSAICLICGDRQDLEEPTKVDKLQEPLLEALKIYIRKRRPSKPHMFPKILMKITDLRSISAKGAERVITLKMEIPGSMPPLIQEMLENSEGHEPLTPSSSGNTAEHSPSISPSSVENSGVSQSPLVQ
Briefly: ligand binding assay. To be noted: read-out: RAR Bind. Ki (nM) β.

The next experiment addresses T3, RARγ (Homo sapiens, UniProt P13631).
T3 sequence (P13631 1-454): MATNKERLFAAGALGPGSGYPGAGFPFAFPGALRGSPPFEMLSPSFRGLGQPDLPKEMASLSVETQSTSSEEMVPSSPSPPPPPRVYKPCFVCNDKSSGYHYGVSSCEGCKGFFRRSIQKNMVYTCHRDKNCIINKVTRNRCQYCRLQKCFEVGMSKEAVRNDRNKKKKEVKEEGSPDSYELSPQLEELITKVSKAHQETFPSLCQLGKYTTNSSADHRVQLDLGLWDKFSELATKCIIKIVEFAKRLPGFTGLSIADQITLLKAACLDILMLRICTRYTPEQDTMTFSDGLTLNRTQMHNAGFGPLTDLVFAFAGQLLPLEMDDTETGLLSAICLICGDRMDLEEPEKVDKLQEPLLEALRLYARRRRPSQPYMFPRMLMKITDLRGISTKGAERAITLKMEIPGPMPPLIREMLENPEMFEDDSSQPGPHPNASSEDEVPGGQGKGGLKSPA
Nature of the experiment: ligand binding assay. To be noted: read-out: RAR Bind. Ki (nM) Y.

Experiment [2] concerns the target T4, RXRβ (UniProt P28704).
T4 sequence (P28704 1-520): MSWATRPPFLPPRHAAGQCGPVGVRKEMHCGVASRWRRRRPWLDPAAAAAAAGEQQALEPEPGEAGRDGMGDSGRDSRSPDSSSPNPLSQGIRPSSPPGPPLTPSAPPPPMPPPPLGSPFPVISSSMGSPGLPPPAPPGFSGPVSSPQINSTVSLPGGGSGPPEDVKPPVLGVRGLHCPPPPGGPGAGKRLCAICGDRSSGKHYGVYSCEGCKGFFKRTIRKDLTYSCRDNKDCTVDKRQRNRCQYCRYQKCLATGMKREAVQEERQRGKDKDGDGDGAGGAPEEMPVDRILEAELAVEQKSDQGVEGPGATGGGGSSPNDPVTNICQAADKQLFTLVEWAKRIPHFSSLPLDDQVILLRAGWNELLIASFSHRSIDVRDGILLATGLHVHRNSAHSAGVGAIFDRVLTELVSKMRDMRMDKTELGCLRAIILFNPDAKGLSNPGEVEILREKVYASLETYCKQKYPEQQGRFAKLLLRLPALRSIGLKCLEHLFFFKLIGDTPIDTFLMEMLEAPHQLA
Briefly: ligand binding assay. The following applies: read-out: RXR Bind Ki (nM) β.
Excerpt: as §1, §2

The target in experiment [3] is T1, RXRγ. Nature of the experiment: ligand binding assay. To be noted: read-out: RXR Bind Ki (nM) Y.
For experiment [4], the target named is T5, RXRα (Homo sapiens, UniProt P19793).
T5 sequence (P19793 1-462): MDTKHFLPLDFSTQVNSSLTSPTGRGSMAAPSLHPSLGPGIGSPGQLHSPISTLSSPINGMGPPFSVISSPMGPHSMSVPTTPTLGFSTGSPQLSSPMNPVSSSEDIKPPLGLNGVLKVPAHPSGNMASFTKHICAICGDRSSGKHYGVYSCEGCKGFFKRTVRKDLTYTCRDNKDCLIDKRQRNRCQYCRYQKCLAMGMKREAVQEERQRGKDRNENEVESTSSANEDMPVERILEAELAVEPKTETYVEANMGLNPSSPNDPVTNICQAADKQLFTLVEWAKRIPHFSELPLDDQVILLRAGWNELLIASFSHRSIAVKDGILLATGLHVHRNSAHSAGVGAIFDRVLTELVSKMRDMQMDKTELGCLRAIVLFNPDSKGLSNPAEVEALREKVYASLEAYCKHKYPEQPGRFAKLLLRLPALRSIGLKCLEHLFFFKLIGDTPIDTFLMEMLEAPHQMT
Briefly: ligand binding assay.
Excerpt: as §1, §2

The target in experiment [5] is T5, RXRα. Nature of the experiment: holoreceptor transactivation assay. To be noted: for Emax: read-out: % efficacy, RXR Trans. α.
Excerpt: as §1, §2
The target in experiment [6] is T4, RXRβ. Nature of the experiment: holoreceptor transactivation assay. Type of experiment: cell-based. To be noted: for EC50: NA = Not Active, read-out: RXR Trans. EC50 (nM) β; for % efficacy, RXR Trans. β: relative to 10^−6 M AGN 194204.
Excerpt: as §1, §2

Excerpt for RARβ: as §1, §2
Excerpt for RARγ: as §1, §2

Take `CC1=CCC(C)(C)c2cc(N(C)c3ccc(C(=O)O)cc3)c(C)cc21` [Compound 44, 4-[Methyl(3,5,8,8-tetramethyl-7,8-dihydronaphthalen-2-yl)amino]benzoic acid]: the EC50 at RXRγ [1] and at RXRα [5] was greater than 1000 nM in each case. Besides, at RXRγ [1], the “% efficacy, RXR Trans. Y” value is “(15) %”. Moreover, the inhibition constant (Ki) was greater than 10000 nM on RARβ; greater than 10000 nM at RARγ; greater than 1000 nM on RXRβ [2]; greater than 1000 nM on RXRγ [3]; greater than 1000 nM on RXRα [4]. For the same compound, the Emax on RXRα [5] amounted to 30%.
For the compound `CCN(c1ccc(C(=O)O)cc1)c1cc2c(cc1C)C(C)=CCC2(C)C` [Compound 45, 4-[Ethyl(3,5,8,8-tetramethyl-7,8-dihydronaphthalen-2-yl)amino]benzoic acid], on RXRγ [1], the EC50 was greater than 1000 nM. Further, at RXRγ [1], the “% efficacy, RXR Trans. Y” value is recorded as “(25) %”. For the same compound, the Ki is greater than 10000 nM on RARβ; greater than 10000 nM on RARγ; greater than 1000 nM at RXRβ [2]; greater than 1000 nM at RXRγ [3]; greater than 1000 nM on RXRα [4]. Also, the Emax on RXRα [5] came to 50%.
With `CCCN(c1ccc(C(=O)O)cc1)c1cc2c(cc1C)C(C)=CCC2(C)C` [Compound 46, 4-[n-Propyl(3,5,8,8-tetramethyl-7,8-dihydronaphthalen-2-yl)amino]benzoic acid], at RXRβ [6], the EC50 was greater than 1000 nM. Besides, at RXRβ [6], the “% efficacy, RXR Trans. β” value was “(8) %”. In addition, at RXRγ [1], the “% efficacy, RXR Trans. Y” value was “(65) %”. Also, the Ki on RARβ, at RARγ, at RXRβ [2], on RXRγ [3] and at RXRα [4] was greater than 10000 nM in each case. Besides, the Emax on RXRα [5] was found to be 55%.
On to `CCN(c1ccc(C(=O)O)cc1)c1ccc2c(c1)C(C(C)(C)C)=CCC2(C)C` [Compound 88], for which the EC50 on RXRβ [6] turned out to be 41 nM; on RXRγ [1], 5 nM; at RXRα [5] it was 4 nM. The “% efficacy, RXR Trans. β” value at RXRβ [6] was “(100) %”. Further, the “% efficacy, RXR Trans. Y” value at RXRγ [1] is “(120) %”. Besides, the Ki on RARβ was greater than 10000 nM; at RARγ, 3500 nM; at RXRβ [2] it was 12 nM; on RXRγ [3], 21 nM; at RXRα [4] it was 3 nM. For the same compound, the Emax on RXRα [5] turned out to be 114%.
For `CCN(c1ccc(C(=O)O)cc1)c1cc2c(cc1OC)C(C)(C)CC=C2C(C)C` [Compound 148, 4-[Ethyl-(8-isopropyl-3-methoxy-5,5-dimethyl-5,6-dihydronaphthalen-2-yl)amino]benzoic acid], the values for the EC50 on RXRβ [6], on RXRγ [1] and at RXRα [5] were 8 nM, 2 nM and 0.5 nM, respectively. Besides, on RXRβ [6], the “% efficacy, RXR Trans. β” value is “(63) %”. The “% efficacy, RXR Trans. Y” value on RXRγ [1] is “(101) %”. Further, the inhibitory constant (Ki) at RARβ is 7500 nM; at RARγ it was greater than 10000 nM; at RXRβ [2] it was 15 nM; at RXRγ [3], 37 nM; at RXRα [4], 5 nM. Further, the Emax on RXRα [5] amounted to 64%.
For the compound `CCN(c1ccc(C(=O)O)cc1)c1cc2c(cc1OCc1ccccc1)C(C)(C)CC=C2C(C)C` [Compound 154, 4-[(3-Benzyloxy-8-isopropyl-5,5-dimethyl-5,6-dihydronaphthalen-2-yl)ethylamino]benzoic acid], the Ki turned out to be 1800 nM on RARβ; 6200 nM on RARγ; 19 nM on RXRβ [2]; 41 nM on RXRγ [3]; 3 nM at RXRα [4].
As for `CCN(c1ccc(C(=O)O)cc1)c1cc2c(cc1OCc1ccc(C)cc1)C(C)(C)CC=C2C(C)C` [Compound 155, 4-{Ethyl-[8-isopropyl-5,5-dimethyl-3-(4-methylbenzyloxy)-5,6-dihydronaphthalen-2-yl]amino}benzoic acid], the Ki came out at 1400 nM at RARβ; 2900 nM at RARγ; 334 nM at RXRβ [2]; 398 nM on RXRγ [3]; 3 nM at RXRα [4].
For `CCN(c1ccc(C(=O)O)cc1)c1cc2c(cc1OCc1cc(C(C)(C)C)cc(C(C)(C)C)c1)C(C)(C)CC=C2C(C)C` [Compound 156, 4-{[3-(3,5-di-t-butylbenzyloxy)-8-isopropyl-5,5-dimethyl-5,6-dihydronaphthalen-2-yl]ethylamino}benzoic acid] the same measures were 1500 nM, 4200 nM, greater than 1000 nM, greater than 1000 nM and 804 nM.
For `CCN(c1ccc(C(=O)O)cc1)c1cc2c(cc1OCc1ccccc1)C(C)(C)CC=C2C(C)(C)C` [Compound 158], the Ki at RARβ was 374 nM; at RARγ, 881 nM; at RXRβ [2] it was 3 nM; at RXRγ [3], 161 nM; at RXRα [4] it was 4 nM.
Regarding `CCN(c1ccc2c(c1)C(C)=CCC2(C)C)c1ccc(C(=O)O)cn1` [Compound 170, 6-[Ethyl-(5,5,8-trimethyl-5,6-dihydro-naphthalen-2-yl)-amino]-nicotinic acid], the figures for the concentration for a half-maximal effect (EC50) on RXRβ [6], at RXRγ [1] and on RXRα [5] were 379 nM, 67 nM and 33 nM, respectively. For the same compound, the “% efficacy, RXR Trans. β” value on RXRβ [6] is “(110) %”. Also, on RXRγ [1], the “% efficacy, RXR Trans. Y” value was “(127) %”. The inhibitory constant (Ki) was greater than 10000 nM on RARβ; greater than 10000 nM on RARγ; 190 nM on RXRβ [2]; 61 nM at RXRγ [3]; 64 nM on RXRα [4]. Further, on RXRα [5], the Emax was determined as 113%.
